Consider 39 compounds from US7902252B2, “Inhibitors of D-amino acid oxidase” (Sepracor, Inc., priority 2007, dated 2011).

Where only a bound is given, the exact number is not on record here.

Human DAAO, sequence (P14920 whole entry): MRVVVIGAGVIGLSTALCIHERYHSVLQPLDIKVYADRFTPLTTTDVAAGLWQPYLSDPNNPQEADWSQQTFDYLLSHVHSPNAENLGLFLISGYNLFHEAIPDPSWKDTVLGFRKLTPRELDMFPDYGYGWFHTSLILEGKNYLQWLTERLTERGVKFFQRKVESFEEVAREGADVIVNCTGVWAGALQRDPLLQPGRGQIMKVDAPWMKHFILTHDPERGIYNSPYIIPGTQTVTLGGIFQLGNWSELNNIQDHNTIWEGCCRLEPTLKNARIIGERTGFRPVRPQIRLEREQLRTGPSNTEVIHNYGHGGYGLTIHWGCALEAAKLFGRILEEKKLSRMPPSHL

The target in this test is Human DAAO (Homo sapiens, UniProt P14920). Put plainly: D-Amino Acid Oxidase enzyme assay (D-serine, horseradish peroxidase/Amplex Red coupled fluorescence). In kind it is biochemical. Particulars: D-serine 5 mM, pH 7.4. As to the method:
DAAO enzyme activity was measured using the substrate D-serine at its Michaelis-Menton Km of 5 mM. The rate of oxidation is measured as a rate of production of hydrogen peroxide, which was detected using the enzyme horseradish peroxidase (Sigma cat. No. P-8375). This coupled reaction uses the enzyme substrate Amplex Red (Molecular Probes), which is converted to the fluorescent reaction product, resorufin (excitation 530-560 nm; emission ˜590 nm). Although DAAO has a higher pH optimum, all reagents were prepared in 50 mM sodium phosphate buffer at pH 7.4 and inhibition curves were generated at this pH.
The final concentrations of components in 200 μl total volume per well (black clear-bottom 96-well plate, Costar) were:
(a) Horseradish peroxidase: 4 Units per mL
(d) Amplex Red reagent: 50 uM
The reactions were initiated by addition of DAAO enzyme and the fluorescence was monitored. H2O2 was added at 16 uM final concentration to a control well on each plate to test for compound interference with a coupled enzyme. Inhibition curves were generated in the presence of varying concentrations of the inhibitor and IC50 values were calculated for each inhibitor.
Regarding `O=C(O)c1cc2c([nH]1)CCC2NCc1ccc(Cl)cc1` (stereo not drawn) [Compound 108, 4-(4-chlorobenzylamino)-1,4,5,6-tetrahydrocyclopenta[b]pyrrole-2-carboxylic acid], the IC50 was no more than 100 µM.
The compound `COc1cccc(CC2CCc3[nH]c(C(=O)O)cc32)c1` (single isomer, unassigned) [Compound 67, 4-(3-methoxybenzyl)-1,4,5,6-tetrahydrocyclopenta[b]pyrrole-2-carboxylic acid] gave a 50% inhibitory concentration (IC50) of no more than 100 µM.
The value for `O=C(O)c1cc2c([nH]1)C(c1ccc(-c3ccccc3)cc1)CC2` (racemic) [Compound 118, 6-(biphenyl-4-yl)-1,4,5,6-tetrahydrocyclopenta[b]pyrrole-2-carboxylic acid] was no more than 1 µM; that for `O=C(O)c1cc2c([nH]1)CCC2c1cc(F)cc(F)c1` (single isomer, unassigned) [Compound 99, 4-(3,5-difluorophenyl)-1,4,5,6-tetrahydrocyclopenta[b]pyrrole-2-carboxylic acid] was no more than 100 µM.
`Cc1cc(C)cc(C2CCc3[nH]c(C(=O)O)cc32)c1` (stereo not drawn) [Compound 104, 4-(3,5-dimethylphenyl)-1,4,5,6-tetrahydrocyclopenta[b]pyrrole-2-carboxylic acid] registered an IC50 of no more than 100 µM.
To `CC1CCc2[nH]c(C(=O)O)cc21` (racemic) [Compound 4, 4-methyl-1,4,5,6-tetrahydrocyclopenta[b]pyrrole-2-carboxylic acid] belongs no more than 1 µM; to `O=C(O)c1cc2c([nH]1)CCC2CC(F)(F)F` (stereo not drawn) [Compound 38, 4-(2,2,2-trifluoroethyl)-1,4,5,6-tetrahydrocyclopenta[b]pyrrole-2-carboxylic acid], no more than 100 µM; to `O=C(O)c1cc2c([nH]1)CCC2Cc1ccc(Cl)cc1` (racemic) [Compound 14, 4-(4-chlorobenzyl)-1,4,5,6-tetrahydrocyclopenta[b]pyrrole-2-carboxylic acid], no more than 0.1 µM.
`CCCC1CCc2cc(C(=O)O)[nH]c21` (stereo not drawn) [Compound 110, 6-propyl-1,4,5,6-tetrahydrocyclopenta[b]pyrrole-2-carboxylic acid] gave an IC50 of no more than 1 µM.
For `Cc1ccc(C2CCc3[nH]c(C(=O)O)cc32)cc1` (stereo not drawn) [Compound 37, 4-p-tolyl-1,4,5,6-tetrahydrocyclopenta[b]pyrrole-2-carboxylic acid], the IC50 was no more than 1 µM.
The value for `O=C(O)c1cc2c([nH]1)CC1CC21` (single isomer, unassigned) [Compound 139, 1a,4,5,5a-tetrahydro-1H-4-aza-cyclopropa[α]pentalene-3-carboxylic acid] was no more than 1 µM.
`O=C(O)c1cc2c([nH]1)CCC2c1ccc(Cl)cc1` (stereo not drawn) [Compound 101, 4-(4-chlorophenyl)-1,4,5,6-tetrahydrocyclopenta[b]pyrrole-2-carboxylic acid] returned an IC50 of no more than 0.1 µM.
The value for `O=C(O)c1cc2c([nH]1)C(c1cccc(Br)c1)CC2` (stereo not drawn) [Compound 115, 6-(3-bromophenyl)-1,4,5,6-tetrahydrocyclopenta[b]pyrrole-2-carboxylic acid] was no more than 1 µM; that for `O=C(O)c1cc2c([nH]1)C(CCCc1ccccc1)CC2` (racemic) [Compound 134, 6-(3-phenylpropyl)-1,4,5,6-tetrahydrocyclopenta[b]pyrrole-2-carboxylic acid] was no more than 1 µM; that for `O=C(O)c1cc2c([nH]1)CCC2CCc1ccccc1` (single isomer, unassigned) [Compound 20, 4-phenethyl-1,4,5,6-tetrahydrocyclopenta[b]pyrrole-2-carboxylic acid] was no more than 100 µM.
To `O=C(O)c1cc2c([nH]1)CCC2CC1CCCCC1` (stereo not drawn) [Compound 12, 4-(cyclohexylmethyl)-1,4,5,6-tetrahydrocyclopenta[b]pyrrole-2-carboxylic acid] belongs no more than 1 µM; to `CC1CCc2[nH]c(C(=O)O)cc21` (single isomer, unassigned) [Compound 5, 4-methyl-1,4,5,6-tetrahydrocyclopenta[b]pyrrole-2-carboxylic acid], no more than 1 µM.
To `Cc1ccc(C2CCc3cc(C(=O)O)[nH]c32)cc1` (stereo not drawn) [Compound 116, 6-p-tolyl-1,4,5,6-tetrahydrocyclopenta[b]pyrrole-2-carboxylic acid] belongs no more than 1 µM; to `O=C(O)c1cc2c([nH]1)C[C@@H]1[C@@H](c3ccccc3)[C@H]21` (racemic) [Compound 144, ±(1R,1aR,5aR)-1-phenyl-1a,4,5,5a-tetrahydro-1H-4-aza-cyclopropa[α]pentalene-3-carboxylic acid], no more than 100 µM; to `O=C(O)c1cc2c([nH]1)C(c1cccc(F)c1)CC2` (stereo not drawn) [Compound 111, 6-(3-fluorophenyl)-1,4,5,6-tetrahydrocyclopenta[b]pyrrole-2-carboxylic acid], no more than 1 µM.
Compound `Cc1cc(F)ccc1CC1CCc2[nH]c(C(=O)O)cc21` (racemic) [Compound 51, 4-(4-fluoro-2-methylbenzyl)-1,4,5,6-tetrahydrocyclopenta[b]pyrrole-2-carboxylic acid] displayed a half-maximal inhibitory concentration (IC50) of no more than 0.1 µM.
To `CCCC1CCc2[nH]c(C(=O)O)cc21` (single isomer, unassigned) [Compound 9, 4-propyl-1,4,5,6-tetrahydrocyclopenta[b]pyrrole-2-carboxylic acid] belongs no more than 100 µM; to `O=C(O)c1cc2c([nH]1)C(CCc1ccccc1)CC2` (single isomer, unassigned) [Compound 28, 6-phenethyl-1,4,5,6-tetrahydrocyclopenta[b]pyrrole-2-carboxylic acid], no more than 1 µM; to `O=C(O)c1cc2c([nH]1)CCC2Cc1cccc(-c2ccco2)c1` (racemic) [Compound 87, 4-(3-(furan-2-yl)benzyl)-1,4,5,6-tetrahydrocyclopenta[b]pyrrole-2-carboxylic acid], no more than 100 µM.
The value for `O=C(O)c1cc2c([nH]1)CC/C2=C\c1ccc(F)cc1` [Compound 13, (E)-4-(4-fluorobenzylidene)-1,4,5,6-tetrahydrocyclopenta[b]pyrrole-2-carboxylic acid] was no more than 100 µM.
To `O=C(O)c1cc2c([nH]1)CCC2Cc1cccc(Cl)c1` (stereo not drawn) [Compound 56, 4-(3-chlorobenzyl)-1,4,5,6-tetrahydrocyclopenta[b]pyrrole-2-carboxylic acid] belongs no more than 0.1 µM; to `O=C(O)c1cc2c([nH]1)CCC2Cc1cccc(C2CCOC2)c1` (stereo not drawn) [Compound 90, 4-(3-(tetrahydrofuran-3-yl)benzyl)-1,4,5,6-tetrahydrocyclopenta[b]pyrrole-2-carboxylic acid], no more than 1 µM.
`O=C(O)c1cc2c([nH]1)CCC2Cc1cccc(Br)c1` (racemic) [Compound 63, 4-(3-bromobenzyl)-1,4,5,6-tetrahydrocyclopenta[b]pyrrole-2-carboxylic acid] showed an IC50 of no more than 0.1 µM.
To `CC(C)CC1CCc2[nH]c(C(=O)O)cc21` (stereo not drawn) [Compound 11, 4-isobutyl-1,4,5,6-tetrahydrocyclopenta[b]pyrrole-2-carboxylic acid] belongs no more than 1 µM; to `O=C(O)c1cc2c([nH]1)CCC2Cc1ccc(Cl)c(Cl)c1` (racemic) [Compound 57, 4-(3,4-dichlorobenzyl)-1,4,5,6-tetrahydrocyclopenta[b]pyrrole-2-carboxylic acid], no more than 0.1 µM; to `O=C(O)c1cc2c([nH]1)CC(F)(F)C2` [Compound 21, 5,5-difluoro-1,4,5,6-tetrahydrocyclopenta[b]pyrrole-2-carboxylic acid], no more than 1 µM.
The value for `O=C(O)c1cc2c([nH]1)CCC2c1cc(F)cc(F)c1` (racemic) [Compound 98, 4-(3,5-difluorophenyl)-1,4,5,6-tetrahydrocyclopenta[b]pyrrole-2-carboxylic acid] was no more than 1 µM; that for `CC1CCc2[nH]c(C(=O)O)cc21` (single isomer, unassigned) [Compound 6, 4-methyl-1,4,5,6-tetrahydrocyclopenta[b]pyrrole-2-carboxylic acid] was no more than 100 µM; that for `O=C(O)c1cc2c([nH]1)CCC2Cc1ccc(F)cc1` (single isomer, unassigned) [Compound 40, 4-(4-fluorobenzyl)-1,4,5,6-tetrahydrocyclopenta[b]pyrrole-2-carboxylic acid] was no more than 0.1 µM.
To `O=C(O)c1cc2c([nH]1)CCC2Cc1ccc2ccccc2c1` (single isomer, unassigned) [Compound 79, 4-(naphthalen-2-ylmethyl)-1,4,5,6-tetrahydrocyclopenta[b]pyrrole-2-carboxylic acid] belongs no more than 1 µM.
On to `O=C(O)c1cc2c([nH]1)C(c1ccc(-c3ccccc3)cc1)CC2` (single isomer, unassigned) [Compound 119, 6-(biphenyl-4-yl)-1,4,5,6-tetrahydrocyclopenta[b]pyrrole-2-carboxylic acid], for which the IC50 is no more than 1 µM.
To `O=C(O)c1cc2c([nH]1)C(CCc1ccccc1)CC2` (single isomer, unassigned) [Compound 29, 6-phenethyl-1,4,5,6-tetrahydrocyclopenta[b]pyrrole-2-carboxylic acid] belongs no more than 100 µM.
The value for `Cc1cc(F)ccc1CC1CCc2[nH]c(C(=O)O)cc21` (single isomer, unassigned) [Compound 52, 4-(4-fluoro-2-methylbenzyl)-1,4,5,6-tetrahydrocyclopenta[b]pyrrole-2-carboxylic acid] was no more than 100 µM; that for `O=C(O)c1cc2c([nH]1)CCC2Cc1cccc(-c2ccccc2)c1` (stereo not drawn) [Compound 82, 4-(biphenyl-3-ylmethyl)-1,4,5,6-tetrahydrocyclopenta[b]pyrrole-2-carboxylic acid] was no more than 1 µM.
